Source: US10463664B2, “Inhibitors of HSV nucleotidyl transferases and uses therefor” (Saint Louis University, priority 2013, dated 2019)
Read-outs that look alike come from different tables or passages of the source. One block for each compound: values may come before it.

Legend:
[1] = tested on: HSV-1 TK-deficient mutant ΔTK (strain 17); assay: Replication inhibition of thymidine kinase-deficient HSV-1 mutant in Vero cells; assay type: cell-based, herpes simplex virus 1; settings: 50 μM, 24 h
Procedure: Cells and Viruses. Vero cells were maintained in Dulbecco's modified Eagle's medium (DMEM) containing 3% newborn calf serum, 3% bovine growth serum, 2 mM L-glutamine and 100 IU/mL penicillin and 0.1 mg/mL streptomycin (P/S). Primary human foreskin fibroblasts (ATCC #CRL2429™) were cultured in DMEM containing 10% FBS, 2 mM L-glutamine plus P/S, and used at passage 3 to 12. HSV-1 #6 and HSV-2 #1 are de-identified clinical isolates from the Saint Louis University Hospital. Stocks were prepared after a single passage in cell culture and were titered by standard plaque assay (Knipe and Spang, 1982). Wild-type HSV-1 and HSV-2 used in FIG. 6 were laboratory strains 17 and 333, respectively. The HSV-1 TK-deficient mutant, ΔTK contains a 361-bp deletion between the BglII-SmaI restriction enzyme sites in the UL23 open reading frame of strain 17 (Korom, et al., 2013). The TK-deficient mutant of HSV-2 strain 333, ΔTK-, contains a 180-bp KpnI-KpnI deletion in the UL23 open reading frame that abrogates TK activity (McDermott, et al, 1984). ΔTK- was the generous gift of Jim Smiley. Virus stocks were grown and titered on Vero cells (Morrison and Knipe, 1996).
Inhibition of acyclovir-resistant HSV-1 and HSV-2 mutants. […] HSV TK-deficient mutants are therefore insensitive to ACV. […] Vero cells were infected with laboratory strains of HSV-1 or HSV-2 and engineered TK-deficient mutants of the same strains. […] Similar patterns were seen when the compounds were used at 5 μM (FIG. 8B), although inhibition by compound #30 at 5 μM was too low to definitively interpret.

HSV-2 = HSV-2 viral DNA replication (quantitative PCR, GE) versus infectious virus (PFU) in Vero cells; assay type: cell-based, herpes simplex virus 2; settings: for Fold suppression GE / Fold suppression PFU: 24 h, relative to DMSO
Procedure: Quantitative PCR measurement of viral genome levels. Infected cell cultures were collected and virus and cells were pelleted by centrifugation for 30 min at 12,000 rpm. Total DNA was isolated from the pellets using a QIAamp DNA Mini Kit (Qiagen) according to the manufacturer's instructions. DNA concentration of each preparation was measured using a Nanodrop 2000 spectrophotometer. The primers and probe for real-time PCR were designed to amplify a 108 bp segment in the HSV-2 LAT region. […] PCR reactions were set up in 25 μL containing FastStart Universal Probe master mix containing Rox (Roche), 900 nM forward and reverse primers, 250 nM probe, and 5 μL template DNA preparation (˜30-100 ng total DNA). Quantification was performed in triplicate for each DNA preparation using an ABI model 7500 genetic analyzer (Applied Biosystems) with the following cycling parameters: 1 cycle at 50° C. for 2 min, 1 cycle at 95° C. for 10 min, 40 cycles at 95° C. for 15 s, and 60° C. for 1 min. For absolute quantification, 10^3 to 10^8 copies of plasmid pcDNA3.1(+)5′Flag-ICP0 was used to generate a standard curve. Data were analyzed using Sequence Detection System software (ABI), and HSV-2 genome equivalents number per nanogram of total DNA was calculated and used for comparison.
Viral replication was measured 24 hours post-infection by plaque assay, and DNA replication was measured using quantitative PCR against the LAT gene and expressed as genome-equivalents (GE). […] Two inhibitor concentrations were assessed for compounds #30 (60 and 20 μM) and #46 (20 and 10 μM).

HFFs [2] = assay: Neutral red cytotoxicity assay in uninfected HFFs (14 day, with CPE assay); assay type: cell-based, human; settings: 14 days
Procedure: Anti-HCMV CPE inhibition and cytotoxicity assays. HFFs were infected with HCMV strain AD169 in the presence of serial dilutions of the compounds from 0.0192 to 60 μM. Fourteen days later the monolayers were stained with crystal violet, and retained cell density was quantified using a multiplate autoreader (BioTek). Cytotoxicity was measured the same way, except that the cells were uninfected and neutral red internalization by viable cells was measured.
Antiviral efficacy against HCMV. The ability of select HSV inhibitors to inhibit replication of another major human herpesvirus pathogen, human cytomegalovirus (HCMV) (65) was tested. This was based on the inhibitors strong suppression of HSV-1 and HSV-2 and the prediction that other members of the herpesvirus family would be sensitive to NTS inhibitors due to their shared DNA replication mechanism. Compounds #41, 46, 49, 55, 56, and 59 and the FDA-approved anti-HCMV drug ganciclovir were evaluated with crystal violet CPE and neutral red toxicity assays in HFFs. HFFs were infected with HCMV in the presence of serial dilutions of the compounds that were most inhibitory for HSVs. After 14 days the monolayers were stained and cell density was determined by OD reading. Compound cytotoxicity for uninfected cells was determined in the same manner except that neutral red uptake by viable cells was measured. […] The TI values for the four NTS inhibitors of HCMV ranged from 4 for compound #41 to 38 for #56. Therefore, NTS inhibitors can suppress HCMV replication in addition to inhibiting the HSVs.

HCMV strain AD169 = assay: HCMV plaque reduction assay in HFFs; assay type: cell-based, human cytomegalovirus; settings: 10 days, read-out: EC50 against HCMV, plaque reduction assay
Procedure: (§1) HCMV plaque reduction EC50 and toxicity assays. Low passage primary HFFs were infected with HCMV strain AD169 in the presence of serial dilutions of the compounds from 0.032 to 100 μM. Ten days later the monolayers were stained with 1% neutral red solution in PBS. After rinsing, plaques were counted using a stereomicroscope and the EC50 was interpolated from the data. Cytotoxicity was measured using a plate-based assay in which compounds were added to HFFs at 0.032 to 100 μM. At the end of the incubation period, plates were stained for 1 h with a neutral red solution in PBS. The stain was then removed, the plates rinsed in PBS and dried, and dye internalized by viable cells was determined at OD550. CC50 values were interpolated from the data.
(§2) Compounds #41, 46, 49, 55, 56, and 59 and the FDA-approved, anti-HCMV drug ganciclovir were subsequently evaluated with plaque reduction and toxicity assays in HFFs. HFFs were infected with HCMV in the presence of serial dilutions of the compounds. After 10 days the cultures were stained with neutral red and plaques were counted. Compound cytotoxicity for uninfected cells was determined in the same manner except that neutral red uptake by viable cells was measured by optical density. […] The TI values for the five NTS inhibitors of HCMV ranged from 5 for compound #46 to 17 for #55 and 59. Therefore, NTS inhibitors can suppress HCMV replication in addition to inhibiting the HSVs.

HFFs [3] = assay: Neutral red cytotoxicity assay in HFFs (10 day, with plaque reduction assay); assay type: cell-based, human; settings: 10 day assay
Procedure: as §1, §2

Compound: Nc1nc2c(ncn2COCCO)c(=O)[nH]1 [ACV, Acyclovir, reference compound]
Inhibition of TK-mutant HSV-1 (in words) [1]: little effect

Compound: CCOc1ccc(-c2c3cc(O)c(=O)cc-3oc3cc(O)c(O)cc23)cc1 [Compound 30]
Fold suppression PFU/GE (HSV-2; 20 μM): 4.5
Fold suppression GE (HSV-2; 20 μM): 150 fold
Fold suppression PFU (HSV-2; 20 μM): 676 fold
Fold suppression PFU/GE (HSV-2; 60 μM): 143.7
Fold suppression GE (HSV-2; 60 μM): 247 fold
Fold suppression PFU (HSV-2; 60 μM): 35500 fold
Inhibition of TK-mutant HSV-1 (in words) [1]: efficiently inhibited

Compound: Cc1cc(C2CCCCC2)n(O)c(=O)c1 [Compound 41, Ciclopirox, reference compound]
CC50, neutral red (HFFs [2]): measurable toxicity
Fold suppression PFU/GE (HSV-2; 10 μM): 62.0
Fold suppression GE (HSV-2; 10 μM): 551 fold
Fold suppression PFU (HSV-2; 10 μM): 34159 fold
Inhibition of TK-mutant HSV-1 (in words) [1]: efficiently inhibited
EC50 (HCMV strain AD169; Human betaherpesvirus 5, AD169, 240 h): 0.33 µM

Compound: CC(C)c1ccc(O)c(=O)c(O)c1 [Compound 46, Beta-thujaplicinol]
CC50 (HFFs [2]): > 60 µM
Fold suppression PFU/GE (HSV-2; 10 μM): 541.6
Fold suppression GE (HSV-2; 10 μM): 470 fold
Fold suppression PFU (HSV-2; 10 μM): 254536 fold
Fold suppression PFU/GE (HSV-2; 20 μM): 538.2
Fold suppression GE (HSV-2; 20 μM): 615 fold
Fold suppression PFU (HSV-2; 20 μM): 331000 fold
Inhibition of TK-mutant HSV-1 (in words) [1]: efficiently inhibited
CC50 (HFFs [3]): 6.7 µM
EC50 (HCMV strain AD169): 1.3 µM

Compound: CC(C)=CCc1ccc(O)c(=O)cc1C(C)C [Compound 49, Nootkatin]
CC50 (HFFs [2]): > 60 µM
CC50 (HFFs [3]): 6.7 µM
EC50 (HCMV strain AD169): 0.45 µM

EC50 (HCMV strain AD169): 0.47 µM
Compound: CC(=O)NC(CCc1ccc(Cl)c(Cl)c1)c1cccc(O)c(=O)c1 (stereo not shown) [Compound 55]
CC50 (HFFs [2]): > 60 µM
CC50 (HFFs [3]): 8 µM

EC50 (HCMV strain AD169): 2.66 µM
Compound: C=C(C)C1CCc2c(c(C)cc(O)c(=O)c2O)C1 (stereo not shown) [Compound 56, Manicol]
CC50 (HFFs [2]): 38.4 µM
CC50, neutral red (HFFs [2]): measurable toxicity
Fold suppression PFU/GE (HSV-2; 20 μM): 314.3
Fold suppression GE (HSV-2; 20 μM): 420 fold
Fold suppression PFU (HSV-2; 20 μM): 132000 fold
CC50 (HFFs [3]): 6.7 µM
